Test results from patent US20130129695A1, “METHODS FOR TREATING OR INHIBITING INFECTION BY CLOSTRIDIUM DIFFICILE” (priority 2010, published 2013).

How the values were obtained:
CD3299 riboswitch = assay: In-line probing assay, binding of ligands to CD3299 riboswitch; parameters: species or system Clostridium difficile
Experimental: An in-line probing assay, as described in Regulski and Breaker, “In-line probing analysis of riboswitches”, (2008), Methods in Molecular Biology, Vol 419, pp 53-67, the contents of which are incorporated by reference, is used to estimate the dissociation binding constants for the interaction of each of the ligands described herein with a CD3299 riboswitch amplified from Clostridium difficile. Precursor mRNA leader molecules are prepared by in vitro transcription from templates generated by PCR and [5′-^32P]-labeling using methods described previously (Regulski and Breaker, In-line probing analysis of riboswitches (2008), Methods in Molecular Biology Vol 419, pp 53-67). Approximately 5 nM of labeled RNA precursor is incubated for 41 hours at 25° C. in 20 mM MgCl2, 50 mM Tris/HCl (pH 8.3 at 25° C.) in the presence or absence of a fixed concentration of each ligand. Binding to the CD3299 riboswitches are measured 100 ? M. In-line cleavage products are separated on 10% polyacrylamide gel electrophoresis (PAGE), and the resulting gel is visualized using a Molecular Dynamics Phosphorimager. […]
In-line probing exploits the natural ability of RNA to self-cleave at elevated pH and metal ion concentrations (pH≈8.3, 25 mM MgCl2) in a conformation-dependent manner. […] These ligand-dependent changes in RNA cleavage can be readily detected by denaturing gel electrophoresis. […]

[1] = test system: C. difficile strain ATCC 700057 (MMX 4381); assay: Minimum Inhibitory Concentration (MIC) assay; format: cell-based, Clostridium difficile; conditions: Clostridioides difficile, ATCC700057; C. difficile ATCC 700057 (MMX 4381); growth 18-24 hours at 37° C.
Experimental: (§1) The MIC assays are carried out in a final volume of 100 μL in 96-well clear round-bottom plates according to methods established by the Clinical Laboratory Standards Institute (CLSI). Briefly, test compound suspended in 100% DMSO (or another suitable solubilizing buffer) is added to an aliquot of media appropriate for a given pathogen to a total volume of 50 μL. This solution is serially diluted by 2-fold into successive tubes of the same media to give a range of test compound concentrations appropriate to the assay. To each dilution of test compound in media is added 50 ? L of a bacterial suspension from an overnight culture growth in media appropriate to a given pathogen. Final bacterial inoculum is approximately 10^5-10^6 CFU/well. […] Ciprofloxacin is used as an antibiotic-positive control in each screening assay. Each of the bacterial cultures that are available from the American Type Culture Collection (ATCC, www.atcc.org) is identified by its ATCC number.

[2] = test system: C. difficile strain MMX3581 (clinical); assay: Minimum Inhibitory Concentration (MIC) assay; format: cell-based, Clostridium difficile; conditions: Clostridioides difficile, growth 18-24 hours at 37° C.
Experimental: as §1

Compound | binding to the CD3299 riboswitch (in words) (CD3299 riboswitch) | MIC [1] [µg/mL] | MIC [2] [µg/mL]
Cc1cc2nc3c(=O)[nH]c(=O)nc-3n(C[C@H](O)[C@H](O)[C@H](O)COP(=O)(O)O)c2cc1C [FMN, Flavin mononucleotide] | does not bind |  | 
Cc1cc2nc3c(=O)[nH]c(=O)nc-3n(CCNCc3ccccc3)c2cc1C [Compound 2] |  | ≤ 64 | ≤ 64
Cc1cc2nc3c(=O)[nH]c(=O)nc-3n(CCNCc3ccc(Cl)cc3)c2cc1C [Compound 1] |  | ≤ 64 | ≤ 64
